# Measured values taken from ChEMBL document CHEMBL1201862, “PubChem BioAssay data set” (2004).
# Activity calls are given as the source filed them.
# Tests used:
# [1] = target: Dual specificity tyrosine-phosphorylation-regulated kinase 1A (Rattus norvegicus, UniProt Q63470); type: biochemical, Homo sapiens
# [2] = target: Procathepsin L (Homo sapiens, UniProt P07711)
# [3] = target: T1, Rac GTPase-activating protein 1 (Homo sapiens, UniProt Q9H0H5); assay: blockers of MgcRacGAP-driven Rac1 GTP hydrolysis – biochemical, ADP Hunter fluorescence, primary and confirmatory, confirmation (AID 624330); type: functional
# T1 sequence (Q9H0H5 whole entry): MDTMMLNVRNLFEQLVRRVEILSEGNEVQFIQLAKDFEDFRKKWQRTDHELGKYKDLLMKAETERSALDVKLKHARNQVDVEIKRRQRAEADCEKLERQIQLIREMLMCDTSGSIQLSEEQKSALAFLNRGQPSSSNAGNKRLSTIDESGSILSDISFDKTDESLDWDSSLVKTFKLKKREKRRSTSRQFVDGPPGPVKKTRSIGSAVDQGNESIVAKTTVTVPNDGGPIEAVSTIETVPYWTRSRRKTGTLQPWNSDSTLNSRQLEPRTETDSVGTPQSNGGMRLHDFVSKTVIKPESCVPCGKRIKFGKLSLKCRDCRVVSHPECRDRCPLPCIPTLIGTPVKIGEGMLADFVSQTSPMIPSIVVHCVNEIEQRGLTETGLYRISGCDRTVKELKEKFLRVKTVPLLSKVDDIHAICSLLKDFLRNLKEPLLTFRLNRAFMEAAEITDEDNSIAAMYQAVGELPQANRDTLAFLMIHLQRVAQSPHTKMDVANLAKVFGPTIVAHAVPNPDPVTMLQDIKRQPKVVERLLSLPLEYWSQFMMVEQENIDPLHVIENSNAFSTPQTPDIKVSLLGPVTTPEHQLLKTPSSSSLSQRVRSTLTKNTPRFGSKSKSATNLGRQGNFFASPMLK
# [4] = target: Aspartyl aminopeptidase (Plasmodium falciparum 3D7, UniProt Q8I2J3)
# [5] = target: T2, Eukaryotic translation initiation factor 2-alpha kinase 3 (Homo sapiens, UniProt Q9NZJ5); assay: Counterscreen assay for PERK inhibitors: Dose response cell-based high throughput screening assay to measure inhibition of PERK at 6 hours. [Related pubchem assays: 1522, 1416 ]; type: functional
# [6] = target: T2, Eukaryotic translation initiation factor 2-alpha kinase 3; assay: Dose response cell-based high-throughput screening assay to measure PERK inhibition. [Related pubchem assays: 1416 ]; type: functional
# [7] = target: Lysosomal acid glucosylceramidase (Homo sapiens, UniProt P04062); assay: Dose response cell-based high throughput screening assay to identify enhancers of beta-glucosidase activity. [Related pubchem assays: 784 ]; type: functional
# [8] = target: G2/mitotic-specific cyclin-B1 (Homo sapiens, UniProt P14635); assay: Counterscreen assay for inhibitors of Wee1 degradation: dose response cell-based assay to identify inhibitors of cyclin B degradation. [Related pubchem assays: 1410, 1321 ]; type: functional
# [9] = target: Wee1-like protein kinase (Homo sapiens, UniProt P30291); assay: Dose Response Cell-based Assay for Inhibitors of Wee1 Degradation. [Related pubchem assays: 1410, 1321 ]; type: functional
# [10] = target: Mothers against decapentaplegic homolog 3 (Homo sapiens, UniProt P84022); assay: blockers of Smad3 complex formation in lysate – cell lysate, secondary confirmation, chemiluminescent ELISA, HEK293 lysate, dose response (AID 1058); type: functional
# [11] = target: Cytochrome P450 2D6 (Homo sapiens, UniProt P10635); assay: qHTS Assay for Inhibitors and Substrates of Cytochrome P450 2D6. [Related pubchem assays: 410 ]; type: ADME; details: read-out: Potency
# [12] = target: Beta-galactosidase (Escherichia coli, UniProt Q8VNN2); assay: detection-enzyme interference by beta-gal modulators – biochemical, E. coli enzyme, set 3, artefact control for CCR6 antagonist project, dose response (AID 504712); type: functional
# [13] = target: Heat shock protein HSP 90-alpha (Homo sapiens, UniProt P07900); type: functional, organism-based
# [14] = target: Large T antigen (Simian virus 40, UniProt P03070); type: functional, Betapolyomavirus macacae;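 also: Confirmatory-stage PubChem screen for compounds that inhibit SV40 T antigen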
# [15] = target: C-C chemokine receptor type 6 (Homo sapiens, UniProt P51684); assay: antagonism of CCR6 beta-arrestin recruitment – cell-based, luminescent beta-arrestin readout, dose response (AID 504728); type: functional
# [16] = target: T3, High affinity choline transporter 1 (Homo sapiens, UniProt Q9GZV3); assay: human choline transporter blockers, potency – cell-based, 5-point CRC, membrane potential dye, dose response (AID 504840); type: functional
# T3 sequence (Q9GZV3 whole entry): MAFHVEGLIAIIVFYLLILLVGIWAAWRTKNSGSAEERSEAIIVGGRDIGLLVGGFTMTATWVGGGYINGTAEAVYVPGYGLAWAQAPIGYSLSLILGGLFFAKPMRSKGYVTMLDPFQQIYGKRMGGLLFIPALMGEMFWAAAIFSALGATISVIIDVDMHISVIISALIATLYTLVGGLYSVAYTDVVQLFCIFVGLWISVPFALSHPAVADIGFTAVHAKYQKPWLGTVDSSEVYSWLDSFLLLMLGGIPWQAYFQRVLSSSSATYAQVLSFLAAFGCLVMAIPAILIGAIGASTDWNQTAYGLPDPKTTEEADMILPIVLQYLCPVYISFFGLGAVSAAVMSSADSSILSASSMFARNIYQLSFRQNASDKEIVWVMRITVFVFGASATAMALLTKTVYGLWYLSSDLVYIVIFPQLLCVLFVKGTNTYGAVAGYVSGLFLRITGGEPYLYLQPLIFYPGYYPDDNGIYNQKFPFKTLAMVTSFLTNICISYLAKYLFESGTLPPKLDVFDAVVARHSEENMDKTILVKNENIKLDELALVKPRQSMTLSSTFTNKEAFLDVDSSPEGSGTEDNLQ
# [17] = target: NS3 (Hepatitis C virus, UniProt A3EZJ3); assay: PubChem AID 2173; design: species or system Hepacivirus hominis
# [18] = luciferase reporter signal suppression in cells – H4 neuroglioma cells, luminescence, dose response (AID 1990); type: functional, cell-based
# [19] = alpha-synuclein stem-loop luciferase translation blockers – H4 neuroglioma cells, luminescence, confirmation (AID 1988); type: functional, cell-based
# [20] = Luminescence Cell-Based Dose Response HTS to Identify Inhibitors of 5'UTR Stem-Loop Driven Prion Protein mRNA Translation in H4 Neuroglioblastoma Cells. [Related pubchem assays: 1827 (Project Summary), 1813 (Primary HTS)]; type: functional
# [21] = luciferase reporter signal reduction – luminescence, H4-C neuroglioblastoma cells, dose response (AID 2458); type: functional, cell-based;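 also: H4 neuroglioblastoma cells stably carrying a luciferase reporter gene fusion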
# [22] = alpha-synuclein stem-loop translation blockers – luminescence, H4 neuroglioblastoma cells, dose confirmation, confirmation (AID 2454); type: functional, cell-based;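 also: H4 neuroglioblastoma cells carrying an alpha-synuclein 5'UTR luciferase reporter; potency for inhibition of the luciferase signal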
# [23] = cells; type: functional, cell-based
# T2 sequence (Q9NZJ5 whole entry): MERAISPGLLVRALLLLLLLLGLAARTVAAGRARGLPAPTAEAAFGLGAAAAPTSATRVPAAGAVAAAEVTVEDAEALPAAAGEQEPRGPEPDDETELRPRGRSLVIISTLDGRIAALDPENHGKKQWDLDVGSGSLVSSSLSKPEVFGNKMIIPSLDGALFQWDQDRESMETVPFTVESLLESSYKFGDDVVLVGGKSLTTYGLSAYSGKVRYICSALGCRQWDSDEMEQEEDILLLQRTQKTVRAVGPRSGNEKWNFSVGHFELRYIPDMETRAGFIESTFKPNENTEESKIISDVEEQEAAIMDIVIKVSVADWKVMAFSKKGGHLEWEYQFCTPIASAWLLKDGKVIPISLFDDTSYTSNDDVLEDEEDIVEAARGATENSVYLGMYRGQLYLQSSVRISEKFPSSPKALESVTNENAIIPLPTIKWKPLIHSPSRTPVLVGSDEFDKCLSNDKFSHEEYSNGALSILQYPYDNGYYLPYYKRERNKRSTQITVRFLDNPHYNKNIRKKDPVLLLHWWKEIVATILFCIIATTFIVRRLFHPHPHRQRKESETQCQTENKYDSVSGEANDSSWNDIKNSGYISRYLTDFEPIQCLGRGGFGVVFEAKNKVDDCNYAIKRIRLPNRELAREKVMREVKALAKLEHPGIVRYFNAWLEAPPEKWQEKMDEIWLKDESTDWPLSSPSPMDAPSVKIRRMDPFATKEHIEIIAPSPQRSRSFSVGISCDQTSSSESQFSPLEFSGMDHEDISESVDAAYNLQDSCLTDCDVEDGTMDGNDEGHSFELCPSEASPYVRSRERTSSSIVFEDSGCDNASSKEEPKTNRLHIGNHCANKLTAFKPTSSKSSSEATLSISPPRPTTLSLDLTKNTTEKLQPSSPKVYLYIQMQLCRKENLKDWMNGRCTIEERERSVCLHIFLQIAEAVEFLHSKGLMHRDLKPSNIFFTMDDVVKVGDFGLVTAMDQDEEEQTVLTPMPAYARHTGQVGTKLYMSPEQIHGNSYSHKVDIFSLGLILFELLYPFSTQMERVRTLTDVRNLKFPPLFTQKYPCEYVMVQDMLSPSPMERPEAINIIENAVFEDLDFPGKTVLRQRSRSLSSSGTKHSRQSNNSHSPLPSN
# Sequence of Lysosomal acid glucosylceramidase (P04062 whole entry): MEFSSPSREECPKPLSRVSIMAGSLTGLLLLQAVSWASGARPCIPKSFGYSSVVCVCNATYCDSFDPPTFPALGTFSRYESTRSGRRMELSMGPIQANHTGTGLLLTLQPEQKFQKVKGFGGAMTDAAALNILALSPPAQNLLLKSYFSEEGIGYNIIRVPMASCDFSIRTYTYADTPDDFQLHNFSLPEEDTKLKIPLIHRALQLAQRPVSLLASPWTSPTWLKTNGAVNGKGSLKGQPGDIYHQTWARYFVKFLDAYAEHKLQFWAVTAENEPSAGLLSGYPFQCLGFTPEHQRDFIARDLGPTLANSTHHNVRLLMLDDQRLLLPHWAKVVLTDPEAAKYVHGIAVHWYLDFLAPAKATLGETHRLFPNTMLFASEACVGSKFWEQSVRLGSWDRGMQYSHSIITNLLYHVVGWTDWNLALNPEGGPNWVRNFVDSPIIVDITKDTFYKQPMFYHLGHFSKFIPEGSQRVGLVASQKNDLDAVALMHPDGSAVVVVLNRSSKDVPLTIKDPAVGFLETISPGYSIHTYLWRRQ
# Sequence of NS3 (A3EZJ3 whole entry): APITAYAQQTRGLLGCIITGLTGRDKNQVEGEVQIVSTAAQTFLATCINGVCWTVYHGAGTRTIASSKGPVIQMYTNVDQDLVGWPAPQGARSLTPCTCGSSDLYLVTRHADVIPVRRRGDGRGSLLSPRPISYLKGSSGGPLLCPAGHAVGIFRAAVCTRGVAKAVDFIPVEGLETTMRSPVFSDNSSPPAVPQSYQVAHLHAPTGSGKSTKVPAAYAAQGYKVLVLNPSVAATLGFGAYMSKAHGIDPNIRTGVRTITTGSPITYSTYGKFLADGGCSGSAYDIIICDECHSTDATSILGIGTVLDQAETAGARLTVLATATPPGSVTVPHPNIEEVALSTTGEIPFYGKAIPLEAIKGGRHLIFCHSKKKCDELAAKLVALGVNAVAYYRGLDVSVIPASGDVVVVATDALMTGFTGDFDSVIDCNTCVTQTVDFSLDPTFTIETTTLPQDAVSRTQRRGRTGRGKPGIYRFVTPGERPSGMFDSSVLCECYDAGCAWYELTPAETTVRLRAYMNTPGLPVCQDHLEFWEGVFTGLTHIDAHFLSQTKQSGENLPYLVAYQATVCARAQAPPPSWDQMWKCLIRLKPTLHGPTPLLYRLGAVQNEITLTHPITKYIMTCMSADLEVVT
# Sequence of Beta-galactosidase (Q8VNN2 whole entry): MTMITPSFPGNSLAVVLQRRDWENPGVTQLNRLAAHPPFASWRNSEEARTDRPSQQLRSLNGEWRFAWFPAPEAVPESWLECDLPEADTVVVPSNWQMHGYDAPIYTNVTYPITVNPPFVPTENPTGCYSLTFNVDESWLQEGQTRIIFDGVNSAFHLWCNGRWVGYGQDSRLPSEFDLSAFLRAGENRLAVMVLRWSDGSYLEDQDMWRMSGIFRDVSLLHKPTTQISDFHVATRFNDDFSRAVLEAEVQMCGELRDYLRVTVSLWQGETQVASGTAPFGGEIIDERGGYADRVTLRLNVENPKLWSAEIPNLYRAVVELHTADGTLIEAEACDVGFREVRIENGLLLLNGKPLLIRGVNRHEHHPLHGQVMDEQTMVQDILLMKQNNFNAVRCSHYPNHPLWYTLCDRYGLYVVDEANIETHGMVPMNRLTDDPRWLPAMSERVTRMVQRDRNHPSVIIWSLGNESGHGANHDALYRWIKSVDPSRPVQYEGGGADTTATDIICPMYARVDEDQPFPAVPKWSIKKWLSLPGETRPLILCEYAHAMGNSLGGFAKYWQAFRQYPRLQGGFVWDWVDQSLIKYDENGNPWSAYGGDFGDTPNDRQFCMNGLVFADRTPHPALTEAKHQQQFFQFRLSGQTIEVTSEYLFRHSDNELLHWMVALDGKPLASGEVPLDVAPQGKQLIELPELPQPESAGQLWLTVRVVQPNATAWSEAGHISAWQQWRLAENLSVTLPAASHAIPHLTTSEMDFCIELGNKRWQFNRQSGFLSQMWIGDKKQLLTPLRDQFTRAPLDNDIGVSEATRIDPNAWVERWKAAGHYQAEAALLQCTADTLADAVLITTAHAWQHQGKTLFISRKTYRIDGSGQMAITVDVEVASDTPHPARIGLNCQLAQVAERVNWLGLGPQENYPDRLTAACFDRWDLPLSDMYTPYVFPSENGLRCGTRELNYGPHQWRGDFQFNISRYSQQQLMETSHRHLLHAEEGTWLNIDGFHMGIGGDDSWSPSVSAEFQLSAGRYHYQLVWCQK
# Sequence of G2/mitotic-specific cyclin-B1 (P14635 whole entry): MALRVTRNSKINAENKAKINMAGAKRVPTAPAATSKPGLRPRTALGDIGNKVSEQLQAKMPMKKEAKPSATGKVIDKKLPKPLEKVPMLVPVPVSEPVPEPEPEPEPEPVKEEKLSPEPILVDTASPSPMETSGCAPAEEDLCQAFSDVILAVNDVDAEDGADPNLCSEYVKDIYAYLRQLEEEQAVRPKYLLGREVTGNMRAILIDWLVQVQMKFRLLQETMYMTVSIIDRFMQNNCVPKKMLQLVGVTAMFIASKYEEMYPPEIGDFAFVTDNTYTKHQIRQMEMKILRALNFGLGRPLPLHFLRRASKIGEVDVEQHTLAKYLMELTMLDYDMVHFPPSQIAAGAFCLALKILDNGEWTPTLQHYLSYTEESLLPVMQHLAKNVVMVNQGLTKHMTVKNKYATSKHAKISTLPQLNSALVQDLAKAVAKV
# Sequence of Wee1-like protein kinase (P30291 whole entry): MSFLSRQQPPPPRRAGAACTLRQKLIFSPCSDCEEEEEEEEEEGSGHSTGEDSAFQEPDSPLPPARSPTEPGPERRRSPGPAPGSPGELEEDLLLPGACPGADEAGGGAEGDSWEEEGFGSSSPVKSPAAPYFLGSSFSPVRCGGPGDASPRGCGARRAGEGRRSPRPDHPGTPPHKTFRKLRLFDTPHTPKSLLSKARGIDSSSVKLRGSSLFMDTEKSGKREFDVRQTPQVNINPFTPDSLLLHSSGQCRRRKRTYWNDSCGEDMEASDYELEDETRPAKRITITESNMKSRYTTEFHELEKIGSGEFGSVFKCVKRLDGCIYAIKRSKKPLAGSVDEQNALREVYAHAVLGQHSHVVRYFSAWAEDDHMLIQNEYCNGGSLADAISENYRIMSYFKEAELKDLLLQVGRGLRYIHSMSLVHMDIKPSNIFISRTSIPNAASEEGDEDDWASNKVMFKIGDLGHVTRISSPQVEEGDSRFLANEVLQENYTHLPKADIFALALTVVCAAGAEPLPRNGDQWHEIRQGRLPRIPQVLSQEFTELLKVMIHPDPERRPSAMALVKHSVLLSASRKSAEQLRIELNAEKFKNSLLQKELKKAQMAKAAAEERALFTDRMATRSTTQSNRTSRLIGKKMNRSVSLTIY
# Sequence of Cytochrome P450 2D6 (P10635 whole entry): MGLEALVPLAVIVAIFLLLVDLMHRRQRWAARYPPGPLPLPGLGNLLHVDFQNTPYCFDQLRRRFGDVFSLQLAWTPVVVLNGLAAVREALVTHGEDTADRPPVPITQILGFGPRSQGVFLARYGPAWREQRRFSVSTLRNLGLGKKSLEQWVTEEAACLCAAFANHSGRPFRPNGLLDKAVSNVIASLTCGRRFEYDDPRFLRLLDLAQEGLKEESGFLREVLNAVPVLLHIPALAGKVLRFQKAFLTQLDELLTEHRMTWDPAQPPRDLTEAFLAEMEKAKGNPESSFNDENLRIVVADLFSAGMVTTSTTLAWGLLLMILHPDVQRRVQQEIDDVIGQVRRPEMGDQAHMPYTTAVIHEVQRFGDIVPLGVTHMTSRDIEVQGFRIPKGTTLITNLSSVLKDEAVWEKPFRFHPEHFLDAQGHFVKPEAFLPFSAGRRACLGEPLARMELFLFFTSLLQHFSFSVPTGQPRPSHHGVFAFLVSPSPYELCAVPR
compound,measurement,setting,value
Oc1ccc(-c2csc(-c3cccnc3)n2)cc1O,AC50,[1],7.37 µM (active)
same,IC50,[2],> 59.6 µM (not active)
same,IC50,[3],9.47 µM (active)
same,IC50,[4],1.81 µM (active)
Cc1c2cnn(-c3ccccc3)c(=O)c2c(C)n1CCCC(=O)NCCN1CCN(C)CC1,EC50,[5],> 55.7 µM (not active)
same,EC50,[6],> 55.7 µM (not active)
COC(=O)c1cn(NC(=O)c2ccncc2)c(=O)c2ccccc12,EC50,[7],> 50 µM (not active)
CCN(CC)S(=O)(=O)c1ccc(C(=O)NCCc2ccccn2)cc1,EC50,[8],> 49.7 µM (not active)
same,EC50,[9],> 49.7 µM (not active)
COc1cc(C(c2cc3c(cc2O)OCO3)N2CCOCC2)ccc1O (stereo not drawn),IC50,[10],10.1 µM (not active)
COc1cccc(-c2oc3ccccc3c(=O)c2O)c1,AC50,[11],31.6 µM (inconclusive)
O=[N+]([O-])c1cc(Cc2ccccc2)cc(/C=N/c2ccc(N3CCOCC3)cc2)c1O,IC50,[12],> 66.6 µM (inactive)
same,AC50,[13],4.32 µM (active)
same,IC50,[14],2.64 µM (active)
same,IC50,[15],> 66.6 µM (inactive)
same,IC50,[16],9.12 µM (active)
same,IC50,[17],7.65 µM (active)
CC(=O)O[C@@H]1/C=C/[C@](C)(O)C[C@@H](C)C/C=C/[C@H]2[C@H](O)C(C)=C(C)[C@H]3[C@H](Cc4ccccc4)NC(=O)[C@@]123,EC50,[18],0.208 µM (active)
same,EC50,[19],< 0.1 µM (active)
same,EC50,[20],28.2 µM (active)
same,EC50,[21],0.577 µM (active)
same,EC50,[22],0.397 µM (active)
same,EC50,[23],0.895 µM (active)
